Data from patent publication US20210078958A1, “QUINAZOLINE DERIVATIVE AND USE THEREOF” (MEDSHINE DISCOVERY INC., priority 2017, published 2021).

Tests used:
HER2 (ErbB2) = HER2 (ErbB2) (Homo sapiens, UniProt P04626); assay: in vitro enzyme activity, HER2 (ErbB2); type: biochemical; conditions: human ErbB2, [γ-33P]ATP, poly(Glu, Tyr) substrate
Method: (§1) The purpose of this assay is to detect the in vitro inhibitory activity of compounds on HER1 (ErbB1), HER2 (ErbB2), and HER4 (ErbB4). The enzymes used in this assay are human ErbB1, ErbB2 and ErbB4. Eurofins Pharma Discovery Service provided the method for activity detection.
(§2) Steps and Method of the Assay (96-Well Plate):
(§3) A buffer solution of the test compounds in a dilution of 5-fold (5 μL), polypeptide substrate poly(Glu, Tyr) (4:1) (2.5 μL), ErbB (4-20 ng, 2.5 μL), MnCl2 (50 mM, 1.25 μL), dH2O (3.75 μL), and [γ-^33P]ATP (10 μL) were added, and incubated at 30° C. for 10 minutes. The reaction was terminated by adding 3% phosphoric acid. 10 μL of the sample was taken and transferred to Filtermate A. The filter disc was washed 3 times with 75 mM phosphoric acid and once with methanol. The filter disc was transferred to a sealed plastic bag and the scintillation mixture (4 mL) was added. The intensity of the emitted photon was detected by a scintillation luminescence counter. The CPM (times/min) of the enzyme sample was compared with the CPM of the internal control sample. The level of photon intensity reflected the degree of the tyrosine kinase activity.

HER4 (ErbB4) = HER4 (ErbB4) (Homo sapiens, UniProt Q15303); assay: in vitro enzyme activity, HER4 (ErbB4); type: biochemical; conditions: human ErbB4, [γ-33P]ATP, poly(Glu, Tyr) substrate
Chain of HER4 (ErbB4) (Q15303 26-1308): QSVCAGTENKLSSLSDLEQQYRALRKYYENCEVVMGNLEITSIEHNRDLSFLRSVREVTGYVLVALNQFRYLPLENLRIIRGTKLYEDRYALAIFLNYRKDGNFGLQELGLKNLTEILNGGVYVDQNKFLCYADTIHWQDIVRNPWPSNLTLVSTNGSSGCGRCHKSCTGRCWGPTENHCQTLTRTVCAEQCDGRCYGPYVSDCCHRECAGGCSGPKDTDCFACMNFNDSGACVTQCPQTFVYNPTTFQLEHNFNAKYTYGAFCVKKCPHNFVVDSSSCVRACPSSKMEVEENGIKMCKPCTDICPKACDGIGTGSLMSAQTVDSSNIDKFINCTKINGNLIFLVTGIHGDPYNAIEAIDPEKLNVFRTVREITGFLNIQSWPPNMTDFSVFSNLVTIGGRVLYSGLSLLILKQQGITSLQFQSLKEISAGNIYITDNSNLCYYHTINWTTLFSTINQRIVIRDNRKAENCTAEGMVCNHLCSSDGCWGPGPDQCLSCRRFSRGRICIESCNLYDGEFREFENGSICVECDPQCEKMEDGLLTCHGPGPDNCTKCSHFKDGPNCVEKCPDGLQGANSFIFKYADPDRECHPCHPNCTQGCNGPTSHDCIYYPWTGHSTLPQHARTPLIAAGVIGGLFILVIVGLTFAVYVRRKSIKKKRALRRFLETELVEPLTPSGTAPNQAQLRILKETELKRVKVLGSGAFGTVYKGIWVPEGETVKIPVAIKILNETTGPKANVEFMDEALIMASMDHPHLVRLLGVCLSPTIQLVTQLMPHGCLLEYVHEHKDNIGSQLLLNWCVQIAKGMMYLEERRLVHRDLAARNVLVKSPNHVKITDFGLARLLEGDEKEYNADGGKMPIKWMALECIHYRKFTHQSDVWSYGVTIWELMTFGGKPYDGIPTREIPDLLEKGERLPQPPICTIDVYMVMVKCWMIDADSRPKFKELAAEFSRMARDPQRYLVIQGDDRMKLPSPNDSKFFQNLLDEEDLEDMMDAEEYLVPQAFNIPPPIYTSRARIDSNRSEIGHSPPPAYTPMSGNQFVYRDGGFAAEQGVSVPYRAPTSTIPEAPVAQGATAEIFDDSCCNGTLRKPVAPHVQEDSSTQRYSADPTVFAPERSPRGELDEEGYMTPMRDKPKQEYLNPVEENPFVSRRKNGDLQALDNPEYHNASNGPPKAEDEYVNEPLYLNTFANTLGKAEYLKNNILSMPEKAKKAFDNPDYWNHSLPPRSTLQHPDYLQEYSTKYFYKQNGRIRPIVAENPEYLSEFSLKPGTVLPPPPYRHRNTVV
Method: as §1, §2, §3

HER1 (ErbB1) = HER1 (ErbB1) (Homo sapiens, UniProt P00533); assay: in vitro enzyme activity, HER1 (ErbB1); type: biochemical; conditions: human ErbB1, [γ-33P]ATP, poly(Glu, Tyr) substrate
Chain of HER1 (ErbB1) (P00533 25-1210): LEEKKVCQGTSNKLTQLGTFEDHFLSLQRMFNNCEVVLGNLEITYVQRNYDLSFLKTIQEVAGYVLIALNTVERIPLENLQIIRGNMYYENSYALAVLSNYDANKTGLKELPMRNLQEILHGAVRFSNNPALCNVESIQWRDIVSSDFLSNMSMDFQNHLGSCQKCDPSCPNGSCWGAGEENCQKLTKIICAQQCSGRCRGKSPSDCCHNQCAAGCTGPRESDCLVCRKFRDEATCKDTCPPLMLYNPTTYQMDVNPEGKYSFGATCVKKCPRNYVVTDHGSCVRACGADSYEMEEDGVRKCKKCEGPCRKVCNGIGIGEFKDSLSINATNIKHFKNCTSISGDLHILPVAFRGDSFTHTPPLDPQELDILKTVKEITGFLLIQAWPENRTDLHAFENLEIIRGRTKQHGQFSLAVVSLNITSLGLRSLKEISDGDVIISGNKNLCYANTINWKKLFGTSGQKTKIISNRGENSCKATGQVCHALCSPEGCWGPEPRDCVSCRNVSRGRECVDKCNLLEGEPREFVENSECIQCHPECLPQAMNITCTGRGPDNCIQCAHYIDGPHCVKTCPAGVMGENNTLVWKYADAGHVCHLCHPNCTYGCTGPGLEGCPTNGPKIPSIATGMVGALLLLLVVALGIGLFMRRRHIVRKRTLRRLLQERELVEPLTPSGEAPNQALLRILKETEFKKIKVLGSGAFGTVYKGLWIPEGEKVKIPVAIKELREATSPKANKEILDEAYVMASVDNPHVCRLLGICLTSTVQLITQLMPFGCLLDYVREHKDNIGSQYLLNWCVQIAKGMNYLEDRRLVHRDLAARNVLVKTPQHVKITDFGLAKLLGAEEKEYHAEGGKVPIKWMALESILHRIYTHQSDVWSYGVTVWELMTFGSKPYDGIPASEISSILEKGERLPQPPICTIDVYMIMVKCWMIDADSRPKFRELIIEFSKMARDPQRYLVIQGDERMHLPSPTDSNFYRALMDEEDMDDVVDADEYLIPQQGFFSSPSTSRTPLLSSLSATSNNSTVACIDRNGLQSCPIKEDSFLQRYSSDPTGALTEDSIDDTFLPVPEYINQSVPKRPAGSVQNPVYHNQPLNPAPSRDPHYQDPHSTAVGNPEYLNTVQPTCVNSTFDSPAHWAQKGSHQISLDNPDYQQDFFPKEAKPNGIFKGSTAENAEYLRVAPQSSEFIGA
Method: as §1, §2, §3

[1] = tested on: subcutaneous xenograft tumor of human gastric cancer NCI-N87 cells; type: in vivo; conditions: for Tumor volume (mm3) (Day 21) / T/C (%) / TGI (%): 3 mg/kg, NCI-N87 xenograft; for Tumor volume (mm3) (Day 21): Mean ± SEM; for T/C (%) / TGI (%): day 21; for body weight of test animals (reference index for drug toxicity): mouse, in vivo
Method: Purpose of the assay: to evaluate the in vivo efficacy of compounds to be tested on subcutaneous xenograft tumor of human gastric cancer NCI-N87 cells in a BALB/c nude mouse model.
Animals of the assay: female BALB/c nude mice, 6-8 weeks old, weighted 18-22 grams; supplier: shanghai sippr bk laboratory animals Ltd.
Human gastric cancer NCI-N87 cells were cultured in monolayer in vitro. The culture conditions were RPMI-1640 medium plus 10% fetal bovine serum, 100 U/mL penicillin, 100 μg/mL streptomycin and 2 mM glutamine, 37° C., 5% CO2. The passaging was performed by the conventional digestion with trypsin-EDTA twice a week. When the cell saturation was 80%-90%, the cells were collected, counted and inoculated.
0.2 mL (10×10^6 cells) of NCI-N87 cells were inoculated subcutaneously on the right back of each nude mouse (PBS+Matrigel, 1:1). When the average tumor volume reached 145 mm^3, administration to each group was started.
The test compounds were formulated into a 0.3 mg/mL clear solution in the solvents of 10% NMP (N-methylpyrrolidone)+10% ethylene glycol stearate+80% water.
The assay index is to investigate whether tumor growth is inhibited, delayed or cured. Tumor diameter was measured twice a week with a vernier caliper. The calculation formula of tumor volume is: V=0.5a×b^2, wherein a and b represent the long and short diameters of tumor, respectively.
The antitumor efficacy of the compounds were evaluated by TGI (%) or relative tumor proliferation rate T/C (%). TGI (%) reflects the tumor growth inhibition rate. TGI (%) is calculated as follows: TGI (%)=[1−(average tumor volume at the end of administration for a certain treatment group−average tumor volume at the beginning of administration for this treatment group)/(average tumor volume at the end of treatment for a solvent control group−average tumor volume at the beginning of administration for this solvent control group)][…].
Relative tumor proliferation rate T/C (%): the calculation formula is as follows: T/C %=TRTV/CRTV (TRTV: RTV for the treatment group; CRTV: RTV for the negative control group). Relative tumor volume (RTV) is calculated based on tumor measurement results. The calculation formula is RTV=Vt/V0, wherein V0 is the average tumor volume measured at the beginning of administration (i.e., d0) to each group, Vt is the average tumor volume at a certain measurement, and the data for TRTV and CRTV were taken on the same day.
The tumor weight was measured after the assay is over and the T/C weight percentage was calculated. T weight and C weight represent the tumor weight of the administration group and the vehicle control group, respectively.
Statistical analysis included the mean and standard error (SEM) of tumor volume at each time point in each group. […] The comparison between two groups was analyzed by T-test, and the comparison among three or more groups was analyzed by one-way ANOVA. […] All data analysis was carried out with SPSS 17.0. p<0.05 was considered a significant difference.

NCI-N87 cell = assay: inhibitory activity on cell proliferation (Cell-Titer-Glo), NCI-N87; type: cell-based; conditions: Homo sapiens
Description: Purpose of the assay: to detect the inhibitory activity of the test compounds on cell proliferation.
Principle of the assay: the luciferase in a Cell-Titer-Glo reagent produces oxidized luciferin with luciferin, oxygen and ATP as reaction substrates, and releases energy in the form of light. Since the luciferase reaction requires ATP, the total amount of light generated by the reaction is proportional to the total amount of ATP that reflects cell viability.
Cell Titer-Glo cell viability assay kit with luminescence (Promega #G7573)
According to the schematic diagram of the cell seed plate, cells were seeded in a 384- or 96-well plate at a density of 1000 cells per well and 25 μL per well, and 25 μL of PBS was added to the wells near edge of the place where no cells were seeded.
(1) The stock solution of the compounds has a concentration of 10 mM, and the compounds were diluted with DMSO to an initial concentration of 4 mM. The compounds were added to the plate with stock solution of compounds, 9 μL per well.
(2) The compounds were diluted with an ECHO liquid workstation, where 125 nL of compounds were added to each well of the cell plate, 125 nL of DMSO was added to each of the cell well in columns 2 and 23, and 125 nL of DMSO was added to each PBS well in columns 1 and 24.
2.3 After addition of the compounds, the cell plate was centrifuged at 1000 rpm for 1 min, and then placed in a 37° C., 5% CO2 incubator for incubation for 3 days.
The cell plate was taken out from the incubator and equilibrated at room temperature for 30 minutes. 25 μL of Cell-Titer-Glo reagent was added to each well, shaken for one minute to allow well mixed, and centrifuged at 1000 rpm for 1 minute. After 10 minutes, the plate was read on PerkinElmer Envision, and the […] reading time was set to 0.2 second.

[2] = NCI-N87, footnote d: initial dilution concentration of compounds is 10 μM
[3] = NCI-N87, 72 h, incubation for 3 days, Cell-Titer-Glo

Chain of HER2 (ErbB2) (P04626 23-1255): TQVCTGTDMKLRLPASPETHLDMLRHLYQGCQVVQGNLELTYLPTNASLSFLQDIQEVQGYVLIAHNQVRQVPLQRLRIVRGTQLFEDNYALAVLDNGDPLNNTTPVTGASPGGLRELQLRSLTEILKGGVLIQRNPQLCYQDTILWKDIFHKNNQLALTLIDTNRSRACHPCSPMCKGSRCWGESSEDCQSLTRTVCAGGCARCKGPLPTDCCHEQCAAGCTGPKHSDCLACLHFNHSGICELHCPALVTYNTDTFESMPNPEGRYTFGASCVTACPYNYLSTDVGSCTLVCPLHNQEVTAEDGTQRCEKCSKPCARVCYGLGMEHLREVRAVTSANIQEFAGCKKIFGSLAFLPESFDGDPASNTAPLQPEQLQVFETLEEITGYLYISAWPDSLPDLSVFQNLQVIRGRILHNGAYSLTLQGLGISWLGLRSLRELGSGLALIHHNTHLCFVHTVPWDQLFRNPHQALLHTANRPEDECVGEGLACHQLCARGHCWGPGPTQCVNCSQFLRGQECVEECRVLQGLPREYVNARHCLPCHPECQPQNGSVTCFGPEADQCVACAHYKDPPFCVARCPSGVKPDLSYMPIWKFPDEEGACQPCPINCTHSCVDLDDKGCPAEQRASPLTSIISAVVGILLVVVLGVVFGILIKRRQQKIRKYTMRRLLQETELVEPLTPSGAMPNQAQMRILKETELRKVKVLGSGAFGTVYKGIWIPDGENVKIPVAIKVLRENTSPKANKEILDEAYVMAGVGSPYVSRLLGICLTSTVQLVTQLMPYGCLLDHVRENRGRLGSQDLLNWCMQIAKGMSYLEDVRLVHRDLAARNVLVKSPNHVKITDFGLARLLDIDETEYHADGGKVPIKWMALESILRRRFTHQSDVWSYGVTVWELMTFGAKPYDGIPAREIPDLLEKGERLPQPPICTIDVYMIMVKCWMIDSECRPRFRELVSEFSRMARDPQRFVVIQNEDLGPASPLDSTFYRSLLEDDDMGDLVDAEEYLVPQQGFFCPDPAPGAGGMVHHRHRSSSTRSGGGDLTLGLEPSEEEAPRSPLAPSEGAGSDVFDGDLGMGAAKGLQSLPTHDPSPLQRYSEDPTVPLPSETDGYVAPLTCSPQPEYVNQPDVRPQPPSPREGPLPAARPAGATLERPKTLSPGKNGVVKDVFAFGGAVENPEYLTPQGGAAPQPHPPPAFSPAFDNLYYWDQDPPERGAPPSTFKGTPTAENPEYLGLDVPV

Structure (SMILES)	IC50 (HER2 (ErbB2))	IC50 (HER4 (ErbB4))	IC50 (HER1 (ErbB1))	Tumor volume (mm3) (Day 21) [1]	T/C (%) [1]	TGI (%) [1]	body weight of test animals (reference index for drug toxicity) [1]	IC50 (NCI-N87 cell; [2])	IC50 (NCI-N87 cell; [3])
C=CC(=O)N1C[C@H]2C[C@@H](C1)[C@H]2Oc1cc2c(Nc3cccc(Cl)c3F)ncnc2cc1OC [Example 5]	24 nM	157 nM	9 nM	–	–	–	–	–	–
C=CC(=O)N1C[C@H]2C[C@@H](C1)[C@H]2Oc1cc2c(Nc3ccc(OC(F)(F)F)c(Cl)c3)ncnc2cc1OC [Example 6]	4 nM	17 nM	2 nM	–	–	–	–	–	–
C=CC(=O)N1C[C@H]2C[C@@H](C1)[C@H]2Oc1cc2c(Nc3ccc(C#N)c(Cl)c3)ncnc2cc1OC [Example 4]	3 nM	13 nM	2 nM	–	–	–	–	–	–
C=CC(=O)N1[C@@H]2CC[C@H]1C[C@@H](Oc1cc3c(Nc4ccc(Cl)c(Cl)c4F)ncnc3cc1OC)C2 [Example 7]	69 nM	61 nM	40 nM	188 ± 9 mm3	26.10%	92.63%	significantly better than that of the control compound Poziotinib	1.5 nM	–
C=CC(=O)N1C[C@H]2C[C@@H](C1)[C@H]2Oc1cc2c(Nc3ccc(Cl)c(Cl)c3F)ncnc2cc1OC [Example 1]	3 nM	10 nM	2 nM	122 ± 11 mm3	16.62%	103.98%	significantly better than that of the control compound Poziotinib	< 1.5 nM	–
C=CC(=O)N1[C@@H]2CC[C@H]1C[C@H](Oc1cc3c(Nc4ccc(Cl)c(Cl)c4)ncnc3cc1OC)C2 [Example 32]	5 nM	3 nM	15 nM	–	–	–	–	–	0.29 nM
C=CC(=O)N1[C@@H]2CC[C@H]1C[C@H](Oc1cc3c(Nc4ccc(Cl)c(Cl)c4F)ncnc3cc1OCCC(C)(C)O)C2 [Example 45]	7 nM	10 nM	8 nM	–	–	–	–	–	0.69 nM
C=CC(=O)N1[C@@H]2CC[C@H]1C[C@H](Oc1cc3c(Nc4ccc(Cl)c(Cl)c4F)ncnc3cc1OCCCN1CCOCC1)C2 [Example 24]	6 nM	3 nM	10 nM	–	–	–	–	–	0.17 nM
C=CC(=O)N1[C@@H]2CC[C@H]1C[C@H](Oc1cc3c(Nc4ccc(F)c(Cl)c4)ncnc3cc1OC)C2 [Example 40]	5 nM	2 nM	11 nM	–	–	–	–	–	0.34 nM
